Experimental data as given in patent US20260091097A1, “COMBINATION TREATMENT REGIMES FOR TREATING CANCER” (Barinthus Biotherapeutics North America, Inc., priority 2022, published 2026).

Assays:
Assay type in all cases: in vivo, mouse
[1] = system: neoAg-specific CD8+ T cells; assay: Flow cytometry of tetramer+ CD8+ T cells after SNP vaccination; details: IV administration after SNP-SC prime, still with anti-tumor efficacy
Method: For T cell tetramer analysis, cells were assessed for viability with LIVE/DEAD Fixable Blue Dead Cell Stain Kit (Invitrogen) in PBS containing 50 nM dasatinib (STEMCELL Technologies) for 30 min at room temperature. Samples were then washed and blocked with anti-CD16/CD32 (BD Biosciences). Cells were then stained with fluorescently conjugated tetramer in cell staining buffer (PBS and 2% FCS) containing 50 nM dasatinib to enhance staining. Cells were simultaneously stained with the following surface antibodies to: CD8 (clone 53-6.7), PD-1 (clone 29F.A12), Tim-3 (clone RMT3-23), CD44 (clone IM7), CD39 (clone Duha59), and NKG2A (clone 16A11) purchased from BioLegend and CD4 (clone RM4-4) purchased from BD Biosciences. After a 1-h incubation at 4° C., cells were washed twice in cell staining buffer, fixed and permeabilized using the FoxP3 transcription factor staining buffer set (eBioscience). […]
To assess whether there are differences in the magnitude of neoAg-specific CD8^+ T cells after SNP-SC or SNP-IV boost, whole blood was sampled on day 21, a week after the boost and measured the tetramer^+ population by flow cytometry (FIG. 1G). […]
As markers of exhaustion and antigen experience on CD8^+ T cells are important for improving the therapeutic effects of immune checkpoint blockade, the expression of PD-1, TIM-3 and NKG2A post vaccination were assessed. […]

[2] = system: MC38 tumors; assay: Therapeutic MC38 tumor model, SNP-7/8a prime day 7 and boost day 14 together with anti-PD-L1; details: SNP-SC (Reps1) prime, IV boost 7 days later without tumor antigen
Method: For each tumor implantation, a frozen cell aliquot was thawed and cultured in MC38 media at 37° C. and 5% CO2, passaged once and collected using trypsin EDTA (Gibco). Then, […] in sterile PBS per mouse were implanted subcutaneously on the right flank. Tumors were measured twice a week using digital calipers. Tumor volume was estimated using the formula: (tumor volume=short×short×long/2). Animals were killed when tumors surpassed 1,000 mm^3.
Mice were implanted with MC38 tumors on the subcutaneous flank and were treated on day 7 (prime) and day 14 (boost) with SNP-7/8a containing Reps1, an MC38 neoAg, together with anti-PD-L1 (FIG. 1A). […] To confirm and extend these findings in a different tumor model, mice were implanted with TC-1 tumors and treated with SNP-7/8a containing HPV E6 antigen.
To assess the requirement for antigen at the time of boost, mice were primed with SNP-SC containing Reps1, followed by SNP-IV containing an irrelevant antigen (FIG. 1E).

[3] = system: cDC1s; assay: Flow cytometry of DC numbers and maturation after vaccination; details: IV route; comparable to SNP-IV
Method: For the mononuclear phagocyte uptake analysis, cells were assessed for viability with the LIVE/DEAD Fixable Blue Dead Cell Stain Kit for 10 min at room temperature. After FcR blocking, cells were stained for 20 minutes at room temperature with the following surface antibodies: NK1.1 (clone PK136), CD19 (clone 1D3), CD3 (clone 145-2C11), Ly6G (clone 1A8), CD45 (clone 30-F11), Siglec-H (clone 440c), CD86 (clone GL1), CD11c (clone L3), CD80 (clone 16-10A1), B220 (clone RA3-6B2), CD64 (clone X54-5/7.1), CD11b (clone MI/70) and Ly6C (clone AL-21) purchased from BD Biosciences, CCR7 (clone 4B12), MHC class II (I-A/I-E, clone M5/114.15.2), CD169 (clone 3D6.112) and XCR1 (clone ZET) purchased from BioLegend, and CD172a (clone P84) from Thermo Fisher Scientific. The stain was washed off and cells were then fixed in 0.5% PFA in PBS until they were acquired on an LSRFortessa X50 (BD Biosciences) using the FACSDiva software v8.0.1 (BD Biosciences).
Given the systemic distribution of vaccine after SNP-IV but not SNP-SC, the levels of pro-inflammatory cytokines in the sera of mice were assessed at 6 hours after vaccination (FIG. 3F). High levels of systemic IFNα and IL-12 were measured by ELISAs after SNP-IV, especially at the higher dose of 32 nmol that is used in the therapeutic studies, compared to SNP-SC (FIG. 3F). […]

With polyIC:LC as the substance, how does the “CD8+ T cell responses compared to the other vaccinated groups” value [1] read?
Its value is “ten-fold lower”.

And the Tumor growth [2]?
Its Tumor growth is “significantly mediate tumor regression and prolong survival”.

What about the “DC maturation in the spleen and tumor-draining LN” value [3] of the same substance?
Its value is “able to induce DC maturation”.
